The values below come from patent US12514856B2, “Pediatric trazodone compositions and method of treatment thereof” (ANGELINI S.p.A., priority 2019, dated 2026).

The nature of data set [1]: Toxicological Risk Assessment of excipients in oral drops (MDI vs ADI). The following applies: Maximum Daily Therapeutic Dose up to 0.5 mg/kg/day; for MDI (for 2 years aged children): Trazodone HCl 1.5% oral solution; for MDI (for 6 years aged children): Trazodone HCl 3.0% oral solution. On the set-up: species or system children. On the procedure: The Toxicological Risk Assessment of the formulations was performed to evaluate the safety of the excipients employed in the two oral drops formulations for pediatric use.

The conditions of data set [2]: cited from earlier work.
A further data set can be described thus: Caco-2 permeability. Type of data set: in vitro ADME. The following applies: human. The source says: (§1) Derivation of key parameters is described below.
In general terms: Passage across Caco-2 layers is used to estimate intestinal permeability.

For another data set, the target named is CYP3A4 (Homo sapiens, UniProt P08684). Put plainly: CYP3A4-mediated metabolism (retrograde calculation).
Chain of CYP3A4 (P08684 whole entry): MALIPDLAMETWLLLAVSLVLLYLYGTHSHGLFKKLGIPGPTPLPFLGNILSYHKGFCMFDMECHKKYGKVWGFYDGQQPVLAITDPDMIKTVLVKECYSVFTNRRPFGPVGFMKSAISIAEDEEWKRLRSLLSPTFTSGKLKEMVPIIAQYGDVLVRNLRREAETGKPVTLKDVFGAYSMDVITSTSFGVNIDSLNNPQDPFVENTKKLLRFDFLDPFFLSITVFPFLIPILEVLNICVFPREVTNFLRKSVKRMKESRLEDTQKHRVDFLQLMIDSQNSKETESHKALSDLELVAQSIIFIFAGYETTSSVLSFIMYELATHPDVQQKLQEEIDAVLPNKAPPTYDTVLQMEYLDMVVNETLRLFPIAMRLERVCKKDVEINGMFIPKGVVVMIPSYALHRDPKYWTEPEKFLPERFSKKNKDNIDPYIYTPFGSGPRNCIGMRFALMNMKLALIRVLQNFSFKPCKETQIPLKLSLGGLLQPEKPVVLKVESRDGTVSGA
Data set [3] has as its system children with insomnia affected by NDDs. Put plainly: Phase II trial in children with insomnia affected by NDDs. Type of data set: in vivo, human. On the procedure:
Three different doses, 0.25/0.4 and 0.5 mg/kg/day were administered at bedtime in fruit juice (in a volume of about 200 mL) in the pediatric population of from 2 to 17 years old.
A multi-centre, randomised, parallel-group, single-blind phase II trial was designed, based on the prediction described in the previous Example 3, to evaluate the pharmacokinetics and PKPD relationship of trazodone after single and repeated oral doses in children from 2 to years of age, suffering from insomnia, affected by neurodevelopmental disorders (NDDs: autism spectrum disorder, intellectual disability or attention deficit hyperactivity disorder). The single-blind phase II trial is still ongoing.
The primary objective of this study is to assess the pharmacokinetics (PK) of trazodone after single and repeated doses in patients aged from 2 to years.
Among the secondary objectives of this study, there are the establishment of the pharmacokinetic-pharmacodynamic (PKPD) relationship of trazodone, as assessed by actigraphy measures, and the definition of the dose rationale in children and adolescents aged from […] taking into account the therapeutic exposure range in adults.
The parent's diary will also be used in the evaluation of the results. This phase II clinical trial is designed to assess the PK and PD of 3 dose levels of trazodone in children with insomnia affected by NDDs. A minimum of 36 patients will be randomly assigned (at least 30 evaluable patients, 10 for each treatment arm; at least 10 evaluable patients aged 2 to years, 10 evaluable patients aged 6 to […], 10 evaluable patients aged 12 to years; at least 3 patients for each age and treatment arm).
Patients are initially assigned to one of the 3 treatment arms. Patients in treatment arms 2 and 3 will receive 0.25 mg/kg/day for 3 days followed by a higher maintenance dose for 7 days: • Treatment arm 1: 0.25 mg/kg/day (on days 1 through 10) • Treatment arm 2: 0.4 mg/kg/day (0.25 mg/kg/day on days 1 through 3 and 0.4 mg/kg/day on days 4 through 10) • Treatment arm 3: 0.5 mg/kg/day (0.25 mg/kg/day on days 1 through 3 and 0.5 mg/kg/day on days 4 through 10).
Patients qualifying for the participation in the study at visit 1 (day 1, randomisation—first dose) have been admitted to the clinic at 2 out of 3 visits, according to a patient-specific PK sampling scheme. Due to the requirement of sparse sampling, each patient will contribute a total of 5 PK samples.
Sleep latency and total sleeping time have been recorded by actigraphy starting from 3 consecutive days prior to visit 1 up to the end of the treatment.
An interim analysis has been performed after completion of 18 patients to assess whether data collected allows the determination of the relevant PK parameters with the appropriate precision. The 18 patients are so distributed according treatment arms: 3 patients in treatment arm 1, 5 patients in treatment arm 2, 10 patients in treatment arm 3.

A short description of data set [4]: Physical chemistry of trazodone. The data set is classed as physicochemical.
From the text: as §1

The nature of data set [5]: Blood binding (E:P ratio, equilibrium dialysis). Type of data set: in vitro ADME.
From the text: as §1
(Equilibrium dialysis compares concentrations on both sides of a semipermeable membrane.)

Data set [6] in a line: PBPK modelling (Simcyp Population-Based Simulator). Particulars: ER; fitting of concentration-time data following a single oral dose of 300 mg ER trazodone.
A further data set concerns human liver microsome. The data set can be described thus: Additional HLM CLint (retrograde calculation). Particulars: 30% of hepatic metabolism assigned to undefined pathways.
From the text: as §1

The mark [7] stands for this setting: alternative value printed beside the first (EMA 2014; FDA 1998 USA; EFSA 2014; JECFA 1973).
Where [8] appears, read: first-listed value/reference (JECFA, SCF).

Where “and” joins values, the source holds several entries; their conditions need not be identical. Equal entries are not always repeated. Where two headings read alike, the source gives them in different places.

As usually defined, the Papp is the rate of passage across a membrane or cell layer, normalised by area and donor concentration. One may read the pKa as the negative logarithm of the acid dissociation constant.

Consider `O=C(O)CC(O)(CC(=O)O)C(=O)O` [Citric acid anhydrous], for which, in [1], the “MDI (for 2 years aged children)” value is reported as 0.17 mg/kg/day and the “MDI (for 6 years aged children)” value was found to be 0.08 mg/kg/day.
In the case of `O=C([O-])CN(CCN(CC(=O)[O-])CC(=O)O)CC(=O)O.[Na+].[Na+]` [Disodium edetate], the “MDI (for 2 years aged children)” value in data set [1] was found to be 0.02 mg/kg/day. Also, the “MDI (for 6 years aged children)” value in [1] is 0.01 mg/kg/day. For the same compound, the ADI in data set [2] (setting [7]) is 2.5 mg/kg/day; in [2] (setting [8]), 1.9 mg/kg/day and 1.9 (ex- mg/kg/day.
As for `C/C=C/C=C/C(=O)[O-].[K+]` [K-Sorbate], the ADI in data set [2] (setting [7]) is 11 mg/kg/day; in data set [2] (setting [8]), 3 mg/kg/day.
For the compound `CCCOC(=O)c1cc(O)c(O)c(O)c1` [Propyl gallate], in data set [1], the “MDI (for 2 years aged children)” value came out at 0.03 mg/kg/day and the “MDI (for 6 years aged children)” value turned out to be 0.02 mg/kg/day. In addition, the ADI in data set [2] (setting [7]) is 0.5 mg/kg/day. The ADI in data set [2] (setting [8]) is recorded as 1.4 mg/kg/day.
`CC(O)CO` (stereo not shown) [Propylene glycol]: the “MDI (for 2 years aged children)” value in data set [1] came to 10.00 mg/kg/day. Also, the “MDI (for 6 years aged children)” value in [1] came out at 5.00 mg/kg/day. The ADI is reported as 50 mg/kg/day in [2] (setting [7]) and 25 mg/kg/day in data set [2] (setting [8]).
Turning to `O=C([O-])c1ccccc1.[Na+]` [Sodium Benzoate], the ADI in [2] (setting [8]) is recorded as 5 mg/kg/day.
On to `[Na+].[OH-]` [Sodium hydroxide], for which, in [1], the “MDI (for 2 years aged children)” value amounted to 0.04 mg/kg/day and the “MDI (for 6 years aged children)” value was 0.02 mg/kg/day. Also, in data set [2] (setting [8]), the ADI result is on record as “Not limited”.
As for `OC[C@H]1O[C@H](O[C@]2(CCl)O[C@H](CCl)[C@@H](O)[C@@H]2O)[C@H](O)[C@@H](O)[C@H]1Cl` [Sucralose], in data set [1], the “MDI (for 2 years aged children)” value is on record as 0.05 mg/kg/day and the “MDI (for 6 years aged children)” value stood at 0.03 mg/kg/day. Moreover, the ADI in [2] (setting [7]) is 5 mg/kg/day and 5 (USA) mg/kg/day. Besides, the ADI in [2] (setting [8]) was 15 (UE) mg/kg/day and 15 mg/kg/day and 15 (UE)^ mg/kg/day.
Consider `OC[C@H]1O[C@@](CO)(O[C@H]2O[C@H](CO)[C@@H](O)[C@H](O)[C@H]2O)[C@@H](O)[C@@H]1O` [Sucrose], for which the ADI result in data set [2] (setting [8]) is on record as “GRAS”.
Consider `COC(=O)c1ccc(O)cc1` [methyl parahydroxybenzoate], for which, in data set [2] (setting [8]), the ADI is reported as 10 mg/kg/day.
In turn, `COCCc1ccc(OCC(O)CNC(C)C)cc1` (stereo not shown) [metoprolol] came in with a Papp in “Caco-2 permeability” (Caco-2) of 28.1 ×10⁻⁶ cm/s.
For `O=c1n(CCCN2CCN(c3cccc(Cl)c3)CC2)nc2ccccn12` [trazodone], the “CLint, CYP3A4” value at CYP3A4 (Retrograde calculation, 70% of hepatic metabolism assigned to CYP3A4) was 0.438 µL/min/pmol. Also, the fmCYP3A4 on CYP3A4 (estimation of CYP3A4-mediated metabolism) is on record as 70%. Besides, the “cumulative total sleep time” value in data set [3] (actigraphy, patients showing higher exposure to trazodone) is given as “slightly longer sleep time”. Moreover, in [3] (interim analysis), the “correlation between secondary PK parameters and relative change from baseline in total sleep time” value is on record as “correlations were observed”. Also, the “Inter-individual variability in clearance estimates” value in data set [3] (pediatric patients vs adult subjects, interim analysis) is reported as “considerably higher than what has been observed previously in adult subject”. The “dose proportionality of pharmacokinetics” value in data set [3] (pediatric patients, 0.25/0.4/0.5 mg/kg/day, interim analysis of 18 patients) is “dose-proportional”. Besides, in data set [3] (pediatric population with NDD, 0.4 and 0.5 mg/kg/day by drops, preliminary), the sleep time result is “increase the sleep time”. This compound also returned a total sleep time in [3] (visit 3, small proportion of patients assigned to 0.4 and 0.5 mg/kg dose, actigraphy) of over 9 h. Besides, the Papp in the data set “Caco-2 permeability” (Caco-2 cells, read-out: mean Papp) amounted to 24.2 ×10⁻⁶ cm/s. In addition, the “solubility as a function of pH” value in data set [4] was “fully soluble only at acidic pH and precipitates at pH values close to neutrality”. In data set [4] (Monoprotic Base), the pKa came to 6.61. In data set [5] (blood to plasma, calculated from measured E:P ratio), the B/P is reported as 0.68. Besides, in [5] (erythrocyte to plasma ratio), the “E:P ratio” value is “of 0.2”. For the same compound, the fup in data set [5] (fraction unbound in plasma, equilibrium dialysis) is given as 0.0354. For the same compound, the ka entry in data set [6] was “ER: 0.07 hr^−1”. Also, the “Additional HLM CLint” value in the data set with human liver microsome is 25.7 µL/min/mg.
